Laboratory results taken from the supplement of paper PMC4862054.

How the values were obtained:
Details in all cases: incubation time: 72 h
BT-474 [1] = assay: normalised response (% of control), CellTox Green; higher = less cell death (100 = DMSO, 0 = benzethonium chloride kill control)
Procedure, shortened: (§1)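 The table gives the normalised signal for a single concentration in each entry. Breast cancer cell lines were seeded (20 µl suspension) into 384-well plates holding compound at 5 concentrations in 10-fold steps over a compound-specific 10,000-fold range and incubated 72 h, then read for CellTox Green fluorescence (485/520 nm) and CellTiter-Glo luminescence. Normalisation on each plate used 0.1 % DMSO (100) and a positive kill control (0).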

BT-549 [2] = assay: as above
Procedure, shortened: as §1

CAL-120 [3] = assay: as above
Procedure, shortened: as §1

CAL-148 [4] = assay: as above
Procedure, shortened: as §1

CAL-51 [5] = assay: as above
Procedure, shortened: as §1

CAL-85-1 [6] = assay: as above
Procedure, shortened: as §1

DU-4475 [7] = assay: as above
Procedure, shortened: as §1

HCC1143 [8] = assay: as above
Procedure, shortened: as §1

HCC1599 [9] = assay: as above
Procedure, shortened: as §1

HCC1937 [10] = assay: as above
Procedure, shortened: as §1

HDQ-P1 [11] = assay: as above
Procedure, shortened: as §1

Hs578T [12] = assay: as above
Procedure, shortened: as §1

MCF-10A [13] = assay: as above
Procedure, shortened: as §1

MDA-MB-231 [14] = assay: as above
Procedure, shortened: as §1

MDA-MB-436 [15] = assay: as above
Procedure, shortened: as §1

MDA-MB-453 [16] = assay: as above
Procedure, shortened: as §1

MDA-MB-468 [17] = assay: as above
Procedure, shortened: as §1

MFM-223 [18] = assay: as above
Procedure, shortened: as §1

BT-474 [19] = assay: normalised response (% of control), CellTiter-Glo; higher = more viable cells (100 = DMSO, 0 = benzethonium chloride kill control)
Procedure, shortened: as §1

BT-549 [20] = assay: as above
Procedure, shortened: as §1

CAL-120 [21] = assay: as above
Procedure, shortened: as §1

CAL-148 [22] = assay: as above
Procedure, shortened: as §1

CAL-51 [23] = assay: as above
Procedure, shortened: as §1

CAL-85-1 [24] = assay: as above
Procedure, shortened: as §1

DU-4475 [25] = assay: as above
Procedure, shortened: as §1

HCC1143 [26] = assay: as above
Procedure, shortened: as §1

HCC1599 [27] = assay: as above
Procedure, shortened: as §1

HCC1937 [28] = assay: as above
Procedure, shortened: as §1

HDQ-P1 [29] = assay: as above
Procedure, shortened: as §1

Hs578T [30] = assay: as above
Procedure, shortened: as §1

MCF-10A [31] = assay: as above
Procedure, shortened: as §1

MDA-MB-231 [32] = assay: as above
Procedure, shortened: as §1

MDA-MB-436 [33] = assay: as above
Procedure, shortened: as §1

MDA-MB-453 [34] = assay: as above
Procedure, shortened: as §1

MDA-MB-468 [35] = assay: as above
Procedure, shortened: as §1

MFM-223 [36] = assay: as above
Procedure, shortened: as §1

SK-BR-3 = assay: as above
Procedure, shortened: as §1

| Compound | normalised response (BT-474 [1]) [%] | normalised response (BT-549 [2]) [%] | normalised response (CAL-120 [3]) [%] | normalised response (CAL-148 [4]) [%] | normalised response (CAL-51 [5]) [%] | normalised response (CAL-85-1 [6]) [%] | normalised response (DU-4475 [7]) [%] | normalised response (HCC1143 [8]) [%] | normalised response (HCC1599 [9]) [%] | normalised response (HCC1937 [10]) [%] | normalised response (HDQ-P1 [11]) [%] | normalised response (Hs578T [12]) [%] | normalised response (MCF-10A [13]) [%] | normalised response (MDA-MB-231 [14]) [%] | normalised response (MDA-MB-436 [15]) [%] | normalised response (MDA-MB-453 [16]) [%] | normalised response (MDA-MB-468 [17]) [%] | normalised response (MFM-223 [18]) [%] | normalised response (BT-474 [19]) [%] | normalised response (BT-549 [20]) [%] | normalised response (CAL-120 [21]) [%] | normalised response (CAL-148 [22]) [%] | normalised response (CAL-51 [23]) [%] | normalised response (CAL-85-1 [24]) [%] | normalised response (DU-4475 [25]) [%] | normalised response (HCC1143 [26]) [%] | normalised response (HCC1599 [27]) [%] | normalised response (HCC1937 [28]) [%] | normalised response (HDQ-P1 [29]) [%] | normalised response (Hs578T [30]) [%] | normalised response (MCF-10A [31]) [%] | normalised response (MDA-MB-231 [32]) [%] | normalised response (MDA-MB-436 [33]) [%] | normalised response (MDA-MB-453 [34]) [%] | normalised response (MDA-MB-468 [35]) [%] | normalised response (MFM-223 [36]) [%] | normalised response (SK-BR-3) [%] |
| --- | --- | --- | --- | --- | --- | --- | --- | --- | --- | --- | --- | --- | --- | --- | --- | --- | --- | --- | --- | --- | --- | --- | --- | --- | --- | --- | --- | --- | --- | --- | --- | --- | --- | --- | --- | --- | --- |
| O=C(Cc1ccc(-c2ccc(OCCN3CCOCC3)cc2)cn1)NCc1ccccc1 [KX2-391] (1000 nM) | 80.8 | 76.7 | 90.4 | 74.2 | 30.9 | 68.1 | 101 | 113 | 71.9 | 115 | 99.8 | 38.4 | 38.9 | -59.4 | 83.1 | 49.9 | 23.4 | 44.2 | 52.5 | 43.6 | 59.4 | 41.4 | 19.3 | 45.3 | 45.6 | 61.5 | 14.8 | 72.8 | 70.8 | 19.7 | 75.2 | 46.6 | 25.2 | 72 | 33.4 | 44.9 | 14.9 |
| N#Cc1ccc(C(c2ccc(C#N)cc2)n2cncn2)cc1 [Letrozole] (1000 nM) | 100 | 89.6 | 103 | 101 | 98.2 | 105 | 100 | 101 | 85.3 | 67.6 | 102 | 106 | 114 | 98.9 | 87.6 | 96.4 | 75.9 | 88.4 | 94.4 | 103 | 99 | 94.7 | 80.8 | 98.8 | 98.8 | 108 | 104 | 103 | 102 | 97.1 | 101 | 96.5 | 105 | 99.3 | 103 | 100 | 99.5 |
| C=CCc1cccc(/C=N/NC(=O)CN2CCN(Cc3ccccc3)CC2)c1O [PAC-1] (1000 nM) | 98.8 | 61.6 | 102 | 104 | 73.1 | 105 | 101 | 119 | 98.4 | 92.5 | 112 | 104 | 112 | 107 | 89.7 | 106 | 128 | 102 | 97.9 | 75.1 | 97.5 | 101 | 67.2 | 98.5 | 102 | 103 | 120 | 92.7 | 93.3 | 103 | 116 | 96.8 | 86 | 93.6 | 101 | 100 | 109 |
| Nc1nc2[nH]cc(CCc3ccc(C(=O)N[C@@H](CCC(=O)O)C(=O)O)cc3)c2c(=O)[nH]1 [Pemetrexed] (1000 nM) | 99.5 | 82.9 | 100 | 89.9 | 98.2 | 105 | 98.2 | 115 | 92 | 112 | 110 | 101 | 103 | 88 | 108 | 106 | 122 | 103 | 54.4 | 97.1 | 88.1 | 95.7 | 90.6 | 54.5 | 89.5 | 93.3 | 67.4 | 70.3 | 83.2 | 17.1 | 97.6 | 65.6 | 80.7 | 92.2 | 90 | 91.5 | 68.2 |
| CC[C@H](C)C(=O)O[C@H]1C[C@H](O)C=C2C=C[C@H](C)[C@H](CC[C@@H](O)C[C@@H](O)CC(=O)O)[C@H]21 [Pravastatin] (1000 nM) | 99.3 | 85.2 | 100 | 99.8 | 87.6 | 93.4 | 99 | 59 | 95.4 | 95.4 | 112 | 95.2 | 108 | 85.4 | -66.6 | 105 | 134 | 98.5 | 85.8 | 96.3 | 95.3 | 87.6 | 54.5 | 95.5 | 82.1 | 94.3 | 70.8 | 86.9 | 92.2 | 98.4 | 96.1 | 89.9 | 18.9 | 87.7 | 89.9 | 85.5 | 86.2 |
| COc1cc([C@@H]2c3cc4c(cc3[C@@H](O[C@@H]3O[C@@H]5CO[C@@H](c6cccs6)O[C@H]5[C@H](O)[C@H]3O)[C@H]3COC(=O)[C@H]23)OCO4)cc(OC)c1O [Teniposide] (1000 nM) | 99.1 | 78.4 | 88.1 | 21.2 | 51.4 | 91 | 75 | -28.9 | 75.5 | 92.2 | 102 | 98.2 | 75.1 | 61.2 | 90.5 | 111 | 94.5 | 69.6 | 47.6 | 36.5 | 72.4 | 33.3 | 47.8 | 55.3 | 17.3 | 47.8 | 19.6 | 72.4 | 84.1 | 76.3 | 82.8 | 66 | 36.6 | 160 | 41.9 | 82.4 | 19.1 |
| CC(=O)Nc1cccc(-n2c(=O)n(C3CC3)c(=O)c3c(Nc4ccc(I)cc4F)n(C)c(=O)c(C)c32)c1 [Trametinib] (25 nM) | 102 | 93.6 | 87.6 | 108 | 113 | 66.6 | 64.6 | 116 | 105 | 124 | 92.3 | 113 | 81.3 | 66.4 | 97.2 | 111 | 103 | 101 | 73.5 | 107 | 71.7 | 90.7 | 105 | 68.9 | 0.42 | 72.5 | 101 | 81.3 | 61.2 | 83.2 | 35.7 | 72.1 | 91.2 | 111 | 88.7 | 94.6 | 102 |
| CC1=C(/C=C/C(C)=C/C=C/C(C)=C/C(=O)O)C(C)(C)CCC1 [Tretinoin] (1000 nM) | 99.4 | 101 | 107 | 98.5 | 99 | 99.5 | 105 | 115 | 101 | 93.8 | 91.2 | 59.5 | 80.4 | 96.5 | 96.4 | 114 | 109 | 97.5 | 97 | 101 | 101 | 78.1 | 111 | 92.2 | 102 | 96.8 | 99.3 | 97.7 | 102 | 90.7 | 82 | 96.8 | 95.6 | 97.6 | 84.6 | 93.5 | 70.7 |
| Oc1ncc(N(CCCl)CCCl)c(O)n1 [Uracil mustard] (1000 nM) | 101 | 103 | 106 | 103 | 104 | 115 | 105 | 117 | 96 | 102 | 113 | 107 | 102 | 107 | 98.7 | 112 | 120 | 102 | 104 | 100 | 106 | 93.9 | 113 | 99.3 | 95.4 | 101 | 108 | 93.8 | 105 | 99 | 118 | 96.5 | 106 | 104 | 104 | 98.2 | 100 |
